The results in this text go back to patent US5658935A, “Heterocycles, their preparation and their use” (Hoechst Aktiengesellschaft, priority 1993, dated 1997).

Experiment [1] relates to gel-filtered human platelets. The experiment is described as follows: Inhibition of the aggregation of gel-filtered human platelets after ADP or thrombin stimulation. Format: cell-based. Particulars: Platelet. As to the method: (§1) The compounds are tested in particular for their inhibitory effect on blood platelet aggregation and the adhesion of fibrinogen to blood platelets. Gel-filtered blood platelets from human donor blood are used, which are activated with ADP or thrombin.
As a functional test, the inhibition of the aggregation of gel-filtered human platelets is measured after ADP or thrombin stimulation by the compounds according to the invention. The IC50 value of the inhibition is indicated (reference: G. A. Marguerie et al., J. Biol. Chem. 254 (1979), 5357-5363).
(§2) On testing of the inhibition of fibrinogen binding and the inhibition of aggregation, the following results are obtained for the compounds of the examples which follow: […]

The target of experiment [2] is T1, fibrinogen receptor (glycoprotein IIb/IIIa) (Homo sapiens, UniProt P05106+P08514).
T1 construct: on intact, gel-filtered human platelets; from tissue; host or cells: gel-filtered blood platelets from human donor blood
T1 sequence (P08514 32-887 limits assumed): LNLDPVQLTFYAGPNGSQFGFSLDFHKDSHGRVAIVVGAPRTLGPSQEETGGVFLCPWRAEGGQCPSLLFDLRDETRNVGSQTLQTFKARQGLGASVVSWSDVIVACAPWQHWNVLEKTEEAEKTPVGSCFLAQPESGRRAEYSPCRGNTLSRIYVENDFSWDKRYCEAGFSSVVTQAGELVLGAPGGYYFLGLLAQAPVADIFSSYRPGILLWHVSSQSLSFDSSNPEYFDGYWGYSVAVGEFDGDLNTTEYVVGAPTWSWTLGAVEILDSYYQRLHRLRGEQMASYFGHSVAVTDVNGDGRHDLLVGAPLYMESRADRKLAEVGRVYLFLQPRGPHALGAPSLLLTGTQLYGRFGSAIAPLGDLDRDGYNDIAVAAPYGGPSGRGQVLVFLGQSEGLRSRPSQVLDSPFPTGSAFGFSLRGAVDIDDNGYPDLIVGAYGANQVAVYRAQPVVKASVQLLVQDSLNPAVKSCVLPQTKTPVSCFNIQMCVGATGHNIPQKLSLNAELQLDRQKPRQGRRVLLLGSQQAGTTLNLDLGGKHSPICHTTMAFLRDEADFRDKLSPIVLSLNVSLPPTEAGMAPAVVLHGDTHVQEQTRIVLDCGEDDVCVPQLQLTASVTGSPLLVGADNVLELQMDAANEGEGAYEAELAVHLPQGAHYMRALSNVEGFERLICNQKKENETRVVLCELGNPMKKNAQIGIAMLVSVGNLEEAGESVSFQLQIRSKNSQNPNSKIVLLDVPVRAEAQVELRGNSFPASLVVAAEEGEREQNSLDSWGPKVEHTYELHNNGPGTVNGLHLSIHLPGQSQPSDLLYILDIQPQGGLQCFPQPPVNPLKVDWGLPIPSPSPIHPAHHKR
T1 sequence (P08514 891-1039 limits assumed): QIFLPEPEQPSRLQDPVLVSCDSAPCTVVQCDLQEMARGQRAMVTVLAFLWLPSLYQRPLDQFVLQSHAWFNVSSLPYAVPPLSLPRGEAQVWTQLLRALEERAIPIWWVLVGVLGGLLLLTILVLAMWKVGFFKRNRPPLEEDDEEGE
T1 sequence (P05106 27-788): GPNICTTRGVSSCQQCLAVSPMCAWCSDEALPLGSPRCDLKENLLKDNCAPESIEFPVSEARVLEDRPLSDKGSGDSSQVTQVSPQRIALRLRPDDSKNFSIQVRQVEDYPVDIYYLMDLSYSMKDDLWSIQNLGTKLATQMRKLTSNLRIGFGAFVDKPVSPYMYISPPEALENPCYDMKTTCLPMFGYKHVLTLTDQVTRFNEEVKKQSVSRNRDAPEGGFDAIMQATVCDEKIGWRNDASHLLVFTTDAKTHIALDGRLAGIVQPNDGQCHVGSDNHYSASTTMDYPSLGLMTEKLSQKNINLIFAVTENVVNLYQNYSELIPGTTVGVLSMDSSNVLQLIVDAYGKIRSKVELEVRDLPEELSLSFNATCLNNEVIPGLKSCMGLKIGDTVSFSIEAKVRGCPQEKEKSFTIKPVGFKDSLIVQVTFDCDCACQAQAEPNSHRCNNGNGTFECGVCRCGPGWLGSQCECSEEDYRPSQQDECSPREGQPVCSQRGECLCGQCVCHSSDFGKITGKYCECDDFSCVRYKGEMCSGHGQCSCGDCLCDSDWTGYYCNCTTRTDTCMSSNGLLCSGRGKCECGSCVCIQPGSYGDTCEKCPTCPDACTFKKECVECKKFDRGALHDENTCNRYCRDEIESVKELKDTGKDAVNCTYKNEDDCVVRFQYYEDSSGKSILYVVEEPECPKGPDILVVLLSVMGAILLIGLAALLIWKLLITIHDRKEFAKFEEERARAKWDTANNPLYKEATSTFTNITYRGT
The experiment can be described thus: Inhibition of the binding of 125I-fibrinogen to its receptor (glycoprotein IIb/IIIa) on intact, gel-filtered human platelets. The conditions noted are these: after stimulation with ADP (10 μM). As to the method: as §1
The inhibition of the binding of fibrinogen to its receptor (glycoprotein IIb/IIIa) on intact, gel-filtered human platelets by the compounds according to the invention is tested. The Ki value of the inhibition of binding of […] after stimulation with ADP (10 μM) is indicated. (Reference: J. S. Bennett and G. Vilaire, J. Clin. Invest. 64 (1979) 1393-1401; E. Kornecki et al., J. Biol. Chem. 256 (1981), 5695-5701; G. A. Marguerie et al., J. Biol. Chem. 254 (1979) 5357-5363; G. A. Marguerie et al., J. Biol. Chem. 255 (1980) 154-161.)
as §2

[3] abbreviates: ADP stimulation, read-out: Inhibition of platelet aggregation, ADP (IC50).
[4] abbreviates: thrombin stimulation, read-out: Inhibition of platelet aggregation, thrombin (IC50).

One may read the IC50 as the midpoint of a concentration-inhibition curve. Broadly, the Ki is the equilibrium dissociation constant of an inhibitor or competing ligand from its target. Higher therefore signals lower affinity.

Structures are written as SMILES. Like-named read-outs stand apart in the source and are kept apart here.

In the case of `N=C(N)c1ccc(CC2CC(=O)N(CC(=O)N[C@@H](CC(=O)O)C(=O)N[C@H](C(=O)O)c3ccccc3)C2=O)cc1` (stereo partly drawn) [Example 1, {3-[4-(Aminoiminomethyl)benzyl]-2,5-dioxopyrrolidin-1-yl}acetyl-L-aspartyl-L-phenylglycine], the IC50 in experiment [1] (setting [3]) came to 0.2 µM; in experiment [1] (setting [4]), 0.09 µM. The compound further showed a Ki in experiment [2] of 0.043 µM.
For `COC(=O)CC(NC(=O)CN1C(=O)CC(Cc2ccc(C(=N)N)cc2)C1=O)c1cccc(O)c1` (racemic) [Example 15, Methyl 3-(R,S)-3-<{3-[4-(aminoiminomethyl)benzyl]-2,5-dioxopyrrolidin-1-yl}acetamido>-3-(3-hydroxyphenyl)propionate], the IC50 in experiment [1] (setting [3]) and in experiment [1] (setting [4]) was 200 µM in each case.
Take `CC(C)OC(=O)C[C@H](NC(=O)CN1C(=O)CC(Cc2ccc(C(=N)N)cc2)C1=O)C(=O)N[C@H](C(=O)OC(C)C)c1ccccc1` (stereo partly drawn) [Example 14, {3-[4-(Aminoiminomethyl)benzyl]-2,5-dioxopyrrolidin-1-yl}acetyl-L-(β-isopropyl)aspartyl-L-phenylglycine isopropyl ester]: the results for the 50% inhibitory concentration (IC50) in experiment [1] (setting [3]) and in experiment [1] (setting [4]) were 20 µM and 35 µM, respectively.
For the compound `COC(=O)[C@H](Cc1c[nH]c2ccccc12)NC(=O)CN1C(=O)CC(Cc2ccc(C(=N)N)cc2)C1=O` (stereo partly drawn) [Example 12, {3-[4-(Aminoiminomethyl)benzyl]-2,5-dioxopyrrolidin-1-yl}acetyl-L-tryptophan methyl ester], the IC50 stood at 100 µM in experiment [1] (setting [3]) and 80 µM in experiment [1] (setting [4]).
For `N=C(N)c1ccc(CC2CC(=O)N(CC(=O)NC(CC(=O)O)c3cccc(O)c3)C2=O)cc1` (racemic) [Example 16, 3-(R,S)-3-<{3-[4-(Aminoiminomethyl)benzyl]-2,5-dioxopyrrolidin-1-yl}acetamido>-3-(3-hydroxyphenyl)propionate] the same measures were 20 µM and 9 µM.
The matching figures for `N=C(N)c1ccc(CC2CC(=O)N(CC(=O)NC(CCc3ccccc3)C(=O)O)C2=O)cc1` (racemic) [Example 17, {3-[4-(Aminoiminomethyl)benzyl]-2,5-dioxopyrrolidin-1-yl}acetyl-D,L-homophenylalanine]: 100 µM and 100 µM.
For `N=C(N)c1ccc(CC2CC(=O)N(CC(=O)N[C@@H](Cc3c[nH]c4ccccc34)C(=O)O)C2=O)cc1` (stereo partly drawn) [Example 18, {3-[4-(Aminoiminomethyl)benzyl]-2,5-dioxopyrrolidin-1-yl}acetyl-L-tryptophan] the same measures were 100 µM and 70 µM.
On to `COC(=O)C(CCc1ccccc1)NC(=O)CN1C(=O)CC(Cc2ccc(C(=N)N)cc2)C1=O` (racemic) [Example 13, {3-[4-(Aminoiminomethyl)benzyl]-2,5-dioxopyrrolidin-1-yl}acetyl-D,L-homophenylalanine methyl ester], for which the half-maximal inhibitory concentration (IC50) in experiment [1] (setting [3]) and in experiment [1] (setting [4]) was 100 µM throughout.
As to `O=C(O)C[C@H](NC(=O)CN1C(=O)CC(CC2CCNCC2)C1=O)C(=O)N[C@H](C(=O)O)c1ccccc1` (stereo partly shown) [Example 19], the IC50 in experiment [1] (setting [3]) turned out to be 4 µM; in experiment [1] (setting [4]), 1 µM.
